Source: US6403625B1, “Fluorescent labeling reagents” (Daiichi Pure Chemicals Co., Ltd., priority 1998, dated 2002)

What was measured:
[1] = UV-vis absorption spectrum; assay type: physicochemical; details: Table 2
Description: All the melting points were measured with a Yanagimoto-Micro apparatus and were not corrected. Nuclear magnetic resonance (^1H-NMR) spectrum of a protein was recorded by using a spectrometer, JEOL-FX-200 or JEOL-GSX-400. Chemical shifts were indicated as δ values (ppm) using tetramethylsilane as the internal standard. The fast atom bombardment mass spectrometric analysis (FAB) or the electron ionization mass spectrometric analysis (El) was performed by using a JEOL-SX-102A apparatus. […] The UV-vis spectrum was measured by using a Beckmann's 650-40 spectrometer. The fluorescence spectrum was recorded with a Hitachi's 650-40 luminescence spectrometer. […]
A DMF solution (250 μl ) of compound (6) of the present invention obtained in Example 1 (3.7 μmol/ml) was added to a 0.1 M phosphate buffer solution (pH 7.5, 1 ml) of BSA (2 mg). […] Then, the aqueous layer containing the labeled protein and the ethyl acetate layer were subjected to UV-vis and fluorescence analyses.
As a result, the ratios of the fluorescent substance in the aqueous layer and the ethyl acetate layer were 44% in BSA and 69% in IgG. The protein concentration in the labeled protein was measured by using a protein assay kit (Bio-Rad, CA), and the total ICG concentration in the labeled protein was determined from the absorbance (789 nm) of the DMF solution and the ε value of the ICD derivative. […]

[2] = Fluorescence spectrum (excitation/emission); assay type: physicochemical
Description: All the melting points were measured with a Yanagimoto-Micro apparatus and were not corrected. Nuclear magnetic resonance (^1H-NMR) spectrum of a protein was recorded by using a spectrometer, JEOL-FX-200 or JEOL-GSX-400. Chemical shifts were indicated as δ values (ppm) using tetramethylsilane as the internal standard. The fast atom bombardment mass spectrometric analysis (FAB) or the electron ionization mass spectrometric analysis (El) was performed by using a JEOL-SX-102A apparatus. […] The UV-vis spectrum was measured by using a Beckmann's 650-40 spectrometer. The fluorescence spectrum was recorded with a Hitachi's 650-40 luminescence spectrometer. The column chromatography was performed by using Merck's Silica Gel 60 (70-230 mesh). The compound numbers in Examples correspond to those in the aforementioned scheme.
A DMF solution (250 μl ) of compound (6) of the present invention obtained in Example 1 (3.7 μmol/ml) was added to a 0.1 M phosphate buffer solution (pH 7.5, 1 ml) of BSA (2 mg). The reaction mixture was allowed to stand for 30 minutes and subjected to Sephadex LH-20 column chromatography (1.5 cm×50 cm), and then eluted with a 0.1 M phosphate buffer solution (pH 7.5) to obtain a fraction of ICG-labeled protein. For IgG (2 mg), the labeling reaction with a DMF solution (250 μl) of ICG-ATT (6) (3.7 μmol/ml) was carried out in a similar manner to the above by using 0.1 M carbonate buffer (pH 9.5) instead of 0.1 M phosphate buffer (pH 7.5). The 0.1 M phosphate or the carbonate buffer solution (1 ml), containing the ICG-labeled protein (BSA or IgG) obtained by the Sephadex LH-20 column chromatography, was added to ethyl acetate (1 ml), and the mixture was vigorously stirred for 30 minutes to remove fluorescent compounds which bound to the protein through noncovalent bond. Then, the aqueous layer containing the labeled protein and the ethyl acetate layer were subjected to UV-vis and fluorescence analyses.
As a result, the ratios of the fluorescent substance in the aqueous layer and the ethyl acetate layer were 44% in BSA and 69% in IgG. The protein concentration in the labeled protein was measured by using a protein assay kit (Bio-Rad, CA), and the total ICG concentration in the labeled protein was determined from the absorbance (789 nm) of the DMF solution and the ε value of the ICD derivative. The ratios of ICG versus protein (ICG/protein) in each ICG-labeled protein were 21.5 (BSA) and 23.6 (IgG). […] From the foregoing results, it is readily understood that the compounds of the present invention are useful as near infrared fluorescent labeling agents for proteins and oligopeptides.

UV-vis abs (λmax) [1]: 789 nm
λ em ([2]; DMF): 830 nm
λ ex ([2]; DMF): 765 nm
fluorescent λem ([2]; Table 2): 830 nm
fluorescent λex ([2]; Table 2): 765 nm
Structure (SMILES): CCN1C(=CC=CC=CC=CC2=[N+](CCCCCC(=O)N3CCSC3=S)c3ccc4ccccc4c3C2(C)C)C(C)(C)c2c1ccc1ccccc21.[Cl-] [ICG-ATT (6), 2-[7-(1,3-Dihydro-1,1-dimethyl-3-ethylbenz[e]indolin-2-ylidene)-1,3,5-heptatrienyl]-1,1-dimethyl-3-[[6-[(1,3-thiazolidine-2-thion)-1-yl]-6-oxo]hexyl]-1H-benz[e]indolium Chloride]
